What was measured:
[1] = Miglustat plasma pharmacokinetics in patients, incl. renal impairment; assay type: in vivo, human
Protocol: At the recommended 260 mg dose, the mean Cmax was approximately 3 mcg/mL and the mean AUC was approximately 25 mcg*hr/mL. The mean time to reach the maximum concentration ranged from 2 hours to 3 hours.
Plasma concentrations of miglustat increased in patients with renal impairment. Accordingly, the apparent clearance of miglustat decreased with decreasing renal function. […] In some embodiments, the dosage of miglustat in patients with moderate or severe renal impairment is reduced as compared to patients with normal renal function.

healthy adult men = assay: Sperm parameters in healthy adult men; assay type: in vivo, human; details: 100 mg orally twice daily for 6 weeks
rats = assay: Sperm characteristics and fertility in rats; assay type: in vivo, rat
ATB200 = ATB200 (Homo sapiens, UniProt P10253); assay: Thermostability assay using SYPRO Orange; details: pH 7.4
[2] = system: LOPD population (PROPEL target population); assay: Multi-level network meta-regression (ML-NMR) indirect treatment comparison, 6MWD and FVC change from baseline at week 52; parameters: species or system human; details: base-case scenario
Protocol: Using patient-level data from the PROPEL randomized clinical trial (RCT) plus aggregate published data from other RCTs, Phase I/II and open label extension trials, a multi-level network meta-regression was conducted, adjusting for various baseline covariates including previous ERT duration. The base case scenario had covariates resembling the PROPEL population (naïve and ERT-experienced) and analyzed 6MWD and FVC change from baseline at 52 weeks.
An ITC providing relative effect estimates in the target population of interest (ie an LOPD population including a mix of ERT-naïve and ERT-experienced subjects as in the pivotal Phase III trial comparing Cipa+mig with Alglu [PROPEL]) was performed.
A systematic literature review (SLR) was conducted to identify relevant published clinical studies of ERTs in LOPD. Outcomes assessed were change from baseline in 6-minute walking distance (6MWD) (m) and in forced vital capacity (FVC; % predicted) at week 52, acknowledged by clinicians, HTA agencies and payers as key LOPD trial endpoints. Aggregate results on 6MWD and FVC change from baseline over time and baseline characteristics (age, gender, ethnicity, previous ERT duration, baseline 6MWD and baseline FVC) were extracted from included studies.
A multi-level network meta regression (ML-NMR) was performed, which is an extension of standard network meta-analyses (NMAs) that take into account the effect of study-level covariates, and that can be applied to any connected network with any mixture of individual patient-level data (IPD) and aggregate data. ML-NMR is an accepted method by the National Institute for Health and Care Excellence (NICE) in support of cost effectiveness analysis. Single-arm study results were matched to appropriate comparator arms of the comparative studies to allow for inclusion into the network. Mean treatment differences with associated 95% credible intervals (CrIs) were calculated for 6MWD and FVC change from baseline at week 52.
A base-case scenario was evaluated in which all covariates were set to the target population of the PROPEL trial. To study the impact of previous ERT duration on relative effects, ERT duration value was varied, keeping remaining covariate values as in the base-case scenario. A sensitivity analysis was performed by excluding all matched single-arm evidence from the network to assess its impact on the results.
Both fixed effects (FE) and random effects (RE) ML-NMR models were applied and the deviance information criteria (DIC) was used to assess goodness-of-fit of the models and to identify the appropriate model (FE or RE model) for the data. Models were implemented in a Bayesian framework using Stan with help of the R package multinma.
In the base-case scenario, the covariates were set to the baseline characteristics of the target population (ie the PROPEL trial; see Table 20), and time was set to 52 weeks.

Pompe disease patients = details: ERT-experienced patients; cited from earlier work
CIMPR = CIMPR (Homo sapiens, UniProt P11717); assay: CIMPR affinity chromatography of rhGAA (bound vs flow-through by GAA activity); assay type: binding; details: CIMPR affinity column
Text: Multiple batches of the rhGAA according to the disclosure were produced in shake flasks and in perfusion bioreactors using CHO cell line GA-ATB200, the product of which is referred to as “ATB200.” Weak anion exchange (“WAX”) liquid chromatography was used to fractionate ATB200 rhGAA according to terminal phosphate and sialic acid. Elution profiles were generated by eluting the ERT with increasing amount of salt. The profiles were monitored by UV (A280 nm).
To evaluate the ability of the conventional rhGAAs in MYOZYME® and LUMIZYME® to interact with the CIMPR, the two conventional rhGAA preparations were injected onto a CIMPR affinity column (which binds rhGAA having M6P groups) and the flow through collected. The bound material was eluted with a free M6 gradient. Fractions were collected in 96-well plate and GAA activity assayed by 4MU-α-glucosidase substrate. The relative amounts of unbound (flow through) and bound (M6P eluted) rhGAA were determined based on GAA activity and reported as the fraction of total enzyme. […] Indeed, only 27% of the rhGAA in MYOZYME® and 22% of the rhGAA in LUMIZYME® contained M6P that can be productive to target it to the CIMPR on muscle cells.

Gaa KO mice = assay: Single fiber analysis (LAMP1/LC3 co-immunofluorescence, white gastrocnemius); assay type: in vivo, mouse; details: mouse, in vivo
Text: FIG. 17 depicts co-immunofluorescent staining of LAMP1 (green) (see for example, “B”) and LC3 (red) (see, for example, “A”) in single fibers isolated from the white gastrocnemius of Gaa KO mice treated with a vehicle, alglucosidase alfa, or ATB200. “C” depicts clearance of autophagic debris and absence of enlarged lysosome. A minimum of 30 fibers were examined from each animal.
As a result, a significant portion of muscle fibers analyzed (36-60%) from ATB200-treated mice appeared normal or near-normal.

adult subjects with LOPD [3] = assay: Study ATB200-07 (OLE of PROPEL): 6MWD and % predicted 6MWD; assay type: in vivo, human
Text: (§1) The study doses and schedule are maintained from Study ATB200-03.
(§2) Efficacy data are presented in this summary as change from the baseline of Study ATB200-03 (OLE-ES Population).

adult subjects with LOPD [4] = assay: Study ATB200-07 (OLE): sitting % predicted FVC; assay type: in vivo, human
Text: as §1, §2

[5] = in vivo
Protocol: The ongoing open-label extension (OLE) of PROPEL (NCT04138277; ATB200-07) evaluates long-term safety and efficacy of cipa/mig. Outcomes include 6 minute walk distance (6MWD), forced vital capacity (FVC), creatine kinase (CK) and hexose tetrasaccharide (Hex4) levels and safety. Data are reported as change from the PROPEL baseline to OLE week 52 (104 weeks after the PROPEL baseline).

adult subjects with LOPD [6] = assay: Study ATB200-07 (OLE): CK
Protocol: (§3) The Phase III double-blind PROPEL study (NCT03729362; ATB200-03) described in Examples 9 and 10 above compared the investigational two-component therapy cipaglucosidase alfa/miglustat (cipa/mig) with alglucosidase alfa/placebo (alglu) in adults with late-onset Pompe disease (LOPD) over 52 weeks. The ongoing open-label extension (OLE) of PROPEL (NCT04138277; ATB200-07) evaluates long-term safety and efficacy of cipa/mig. Outcomes include 6 minute walk distance (6MWD), forced vital capacity (FVC), creatine kinase (CK) and hexose tetrasaccharide (Hex4) levels and safety. Data are reported as change from the PROPEL baseline to OLE week 52 (104 weeks after the PROPEL baseline).

adult subjects with LOPD [7] = assay: Study ATB200-07 (OLE): Hex4
Protocol: as §3

[8] = human, plasma, oral, 260 mg dose

Sequence of CIMPR (P11717 41-2491, species assumed): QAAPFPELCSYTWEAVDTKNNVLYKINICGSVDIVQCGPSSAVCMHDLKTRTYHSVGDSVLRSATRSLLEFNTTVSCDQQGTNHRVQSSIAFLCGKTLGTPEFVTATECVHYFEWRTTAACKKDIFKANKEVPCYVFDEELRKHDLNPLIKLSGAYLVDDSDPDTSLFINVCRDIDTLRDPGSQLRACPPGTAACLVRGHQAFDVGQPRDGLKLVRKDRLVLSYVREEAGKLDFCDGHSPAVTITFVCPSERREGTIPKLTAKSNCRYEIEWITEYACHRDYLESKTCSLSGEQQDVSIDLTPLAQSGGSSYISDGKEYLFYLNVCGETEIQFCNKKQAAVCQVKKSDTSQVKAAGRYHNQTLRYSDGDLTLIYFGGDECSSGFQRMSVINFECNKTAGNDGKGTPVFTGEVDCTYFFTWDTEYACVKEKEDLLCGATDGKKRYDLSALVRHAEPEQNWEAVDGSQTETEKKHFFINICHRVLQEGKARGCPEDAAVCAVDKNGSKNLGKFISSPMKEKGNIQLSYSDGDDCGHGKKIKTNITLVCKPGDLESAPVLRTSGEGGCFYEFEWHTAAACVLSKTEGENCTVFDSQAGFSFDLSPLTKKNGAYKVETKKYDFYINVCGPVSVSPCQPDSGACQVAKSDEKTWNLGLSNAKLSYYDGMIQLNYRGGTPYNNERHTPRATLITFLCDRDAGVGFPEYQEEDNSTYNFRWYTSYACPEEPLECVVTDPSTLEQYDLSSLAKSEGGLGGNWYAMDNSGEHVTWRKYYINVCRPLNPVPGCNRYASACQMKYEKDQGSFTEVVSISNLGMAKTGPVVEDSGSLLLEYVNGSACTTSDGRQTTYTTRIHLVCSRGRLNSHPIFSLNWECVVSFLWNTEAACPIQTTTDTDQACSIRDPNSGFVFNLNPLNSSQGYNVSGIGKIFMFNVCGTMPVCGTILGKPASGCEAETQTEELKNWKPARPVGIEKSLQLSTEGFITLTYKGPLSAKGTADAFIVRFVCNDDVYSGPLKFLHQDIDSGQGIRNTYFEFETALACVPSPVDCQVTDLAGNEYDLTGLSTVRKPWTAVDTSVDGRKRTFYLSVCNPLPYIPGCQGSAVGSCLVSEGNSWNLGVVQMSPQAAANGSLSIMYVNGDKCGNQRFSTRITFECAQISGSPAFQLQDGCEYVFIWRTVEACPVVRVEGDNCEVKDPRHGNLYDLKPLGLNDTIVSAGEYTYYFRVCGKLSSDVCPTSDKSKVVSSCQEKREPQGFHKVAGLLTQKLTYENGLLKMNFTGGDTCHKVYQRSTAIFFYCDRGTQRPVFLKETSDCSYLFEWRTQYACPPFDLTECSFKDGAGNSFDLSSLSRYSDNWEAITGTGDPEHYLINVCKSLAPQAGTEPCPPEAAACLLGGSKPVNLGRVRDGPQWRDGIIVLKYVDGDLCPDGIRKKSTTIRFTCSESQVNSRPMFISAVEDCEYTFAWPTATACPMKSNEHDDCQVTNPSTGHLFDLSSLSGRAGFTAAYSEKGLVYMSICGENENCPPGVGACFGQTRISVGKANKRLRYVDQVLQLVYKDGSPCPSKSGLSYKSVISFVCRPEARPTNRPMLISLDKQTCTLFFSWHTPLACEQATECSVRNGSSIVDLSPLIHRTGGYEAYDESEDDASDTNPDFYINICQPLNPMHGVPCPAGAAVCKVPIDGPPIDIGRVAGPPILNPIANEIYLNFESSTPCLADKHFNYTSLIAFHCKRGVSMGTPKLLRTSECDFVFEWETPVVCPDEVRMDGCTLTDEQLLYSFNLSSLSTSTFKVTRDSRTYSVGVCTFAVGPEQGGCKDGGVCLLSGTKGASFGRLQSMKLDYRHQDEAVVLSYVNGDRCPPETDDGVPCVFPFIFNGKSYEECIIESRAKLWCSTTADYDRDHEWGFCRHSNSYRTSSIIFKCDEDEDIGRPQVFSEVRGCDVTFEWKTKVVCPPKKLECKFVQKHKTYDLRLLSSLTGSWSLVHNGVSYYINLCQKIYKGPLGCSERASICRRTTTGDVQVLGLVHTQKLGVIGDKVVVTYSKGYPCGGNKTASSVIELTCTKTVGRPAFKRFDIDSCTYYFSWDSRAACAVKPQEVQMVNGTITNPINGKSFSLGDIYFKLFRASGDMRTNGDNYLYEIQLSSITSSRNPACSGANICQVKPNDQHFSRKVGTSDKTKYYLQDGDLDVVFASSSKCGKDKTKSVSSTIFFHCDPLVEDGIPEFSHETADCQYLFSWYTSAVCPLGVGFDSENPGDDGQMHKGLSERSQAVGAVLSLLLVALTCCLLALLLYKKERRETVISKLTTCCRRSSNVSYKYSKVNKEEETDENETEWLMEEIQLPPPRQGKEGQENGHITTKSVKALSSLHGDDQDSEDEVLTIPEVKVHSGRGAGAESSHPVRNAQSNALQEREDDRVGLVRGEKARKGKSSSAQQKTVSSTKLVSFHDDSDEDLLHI

CCCCN1C[C@H](O)[C@@H](O)[C@H](O)[C@H]1CO [miglustat, (2R,3R,4R,5S)-1-butyl-2-(hydroxymethyl)piperidine-3,4,5-triol]
dose proportionality ([1]; 130 mg to 260 mg): linear pharmacokinetics | AUC [1, 8]: ~25000 ng·h/mL | Cmax [1, 8]: ~3000 ng/mL | increase of AUC0-24 hr vs normal renal function ([1]; mild renal impairment (CLcr 60-89 mL/minute)): 21% | increase of AUC0-24 hr vs normal renal function ([1]; moderate renal impairment (CLcr 30-59 mL/minute)): 26% | increase of AUC0-24 hr vs normal renal function ([1]; severe renal impairment (CLcr 15-29 mL/minute)): 31% | effect on sperm concentration, motility, morphology (healthy adult men): No effect on sperm concentration, motility, or morphology | effect on sperm characteristics and fertility (rats): negatively affects sperm characteristics (motility and morphology), thereby reducing fertility | increase of melting temperature (Tm) of ATB200 by addition of miglustat (ATB200): ~10 °C | stabilization of ATB200 (ATB200): stabilized ATB200 at pH 7.4 in a concentration-dependent manner

avalglucosidase alfa: recombinant human acid α-glucosidase, avalglucosidase alfa-ngpt; CAS 1802558-87-7
relative effect, sensitivity analysis (RCT data only), 6MWT and FVC [2]: numerically favourable versus Alglu and placebo (6MWT and FVC) | long-term motor function by 6MWD after switching from alglucosidase alfa (Pompe disease patients): continue to experience progressive loss of motor function as assessed by 6MWD | long-term pulmonary function by FVC after switching from alglucosidase alfa (Pompe disease patients): progressive loss of pulmonary function as assessed by FVC

MYOZYME®: alglucosidase alfa product marketed by Sanofi Genzyme; conventional rhGAA product
rhGAA bound to the CIMPR (fraction of total enzyme) (CIMPR; M6P eluted): 27% | rhGAA that did not bind to the CIMPR (fraction of total enzyme) (CIMPR; flow through): 73% | single fiber appearance vs vehicle-treated mice (Gaa KO mice): did not show any significant difference as compared to vehicle-treated mice

cipa/mig-cipa/mig: treatment sequence: cipa/mig in PROPEL, continued cipa/mig in the open-label extension
mean change in % predicted 6MWD from PROPEL baseline to week 104 (adult subjects with LOPD [3]; ERT-experienced patients): +3.1 | mean change in % predicted 6MWD from PROPEL baseline to week 104 (adult subjects with LOPD [3]; ERT-naïve patients): +8.6 (8.57) | mean change in % predicted FVC from PROPEL baseline to week 104 (adult subjects with LOPD [4]; ERT-experienced patients): −0.6 (7.50) | mean change in % predicted FVC from PROPEL baseline to week 104 (adult subjects with LOPD [4]; ERT-naïve patients): −4.8 (6.48) | patients with treatment-emergent adverse events [5]: 98.8% | mean reduction in CK from PROPEL baseline to week 104 (adult subjects with LOPD [6]; ERT-experienced patients): -132.1 (215.74) U/L | mean reduction in CK from PROPEL baseline to week 104 (adult subjects with LOPD [6]; ERT-naïve patients): −216.9 (243.66) U/L | mean reduction in Hex4 from PROPEL baseline to week 104 (adult subjects with LOPD [7]; ERT-experienced patients): -1.9 (3.22) mmol/mol | mean reduction in Hex4 from PROPEL baseline to week 104 (adult subjects with LOPD [7]; ERT-naïve patients): −2.9 (2.45) mmol/mol

Source: patent US20260041744A1, “Methods for Treating Pompe Disease” (Amicus Therapeutics, Inc., priority 2022, published 2026)
